One compound from ChEMBL document CHEMBL1151619, “Structure and conformation of two new dolabellane-based diterpenes from Dictyota sp” (J Nat Prod, 1984) can be followed below.

The subject of the experiment is KB. The experiment can be described thus: Cytotoxicity against human KB cells. The experiment is classed as functional, cell-based.

The structures appear in SMILES notation. The source made the active and inactive calls. The rule behind the calls is not given here.

In the case of `C=C(C)[C@@H]1CC[C@]2(C)C[C@H](OC(C)=O)/C(CO)=C/CC/C(C)=C/C[C@@H]12`, the outcome was Active.
